Test results from publication PMC6920806, “Synthesis of β-D-galactopyranoside-Presenting Glycoclusters, Investigation of Their Interactions with Pseudomonas aeruginosa Lectin A (PA-IL) and Evaluation of Their Anti-Adhesion Potential” (Biomolecules, 2019).

Test system: adhesion of P. aeruginosa (ST 1763) to epithelial bronchial cells (CuFi-1)
Test: Ex vivo bacterial adherence assay, combination with compound 14
Type: cell-based, Pseudomonas aeruginosa
Details: 2 mM of the compound with compound 14 (250 μM); relative to untreated control
Experimental: Epithelial CuFi-1 cells (an immortalized epithelial cell line derived from cystic fibrosis human lungs, ATCC, Kielpin, Poland) were labelled with PKH67 (Fluorescent Cell Linker Kit, Sigma-Aldrich, St. Louis, MO, USA), a green fluorescent membrane marker, as follows. An aliquot of cell suspension containing 7 × 10^6 cells was washed with PBS buffer and centrifuged (100× g for 5 min). The cell pellet was resuspended in 250 µL of Diluent C (Fluorescent Cell Linker Kit, Sigma-Aldrich, St. Louis, MO, USA). Immediately, an equal volume of 8 µM PKH67 in Diluent C (2 µL of PKH67 in 248 µL of Diluent C) was added to the cell suspension. […]
Epithelial cells CuFi-1 stained with PKH67 were seeded at 8.4 × 10^4 cells/well onto 96-well plates (CellBIND® 96-well Flat Clear Bottom Black Polystyrene Microplates, Corning Incorporated, Corning, NY, USA) and incubated for 42–45 h at 37 °C, 5% CO2 to form a confluent monolayer and regenerate. […] The fluorescence of adhered P. aeruginosa cells (Ex 522 nm, Em 569 nm for PKH26) on epithelial cells (Ex 470 nm, Em 505 for PKH67) was quantified using the spectrofluorometer Tecan Infinite M200 Pro (Tecan Group Ltd., Männedorf, Switzerland). Results were expressed as a relative fluorescence ratio of P. aeruginosa/CuFi-1. […]

| Compound | P. aeruginosa adhesion, mixture with compound 14 |
| --- | --- |
| OC[C@H]1O[C@@H](OCc2cn(CCn3cc(COCC(COCc4cn(CCn5cc(CO[C@@H]6O[C@H](CO)[C@H](O)[C@H](O)[C@H]6O)nn5)nn4)(COCc4cn(CCn5cc(CO[C@@H]6O[C@H](CO)[C@H](O)[C@H](O)[C@H]6O)nn5)nn4)COCc4cn(CCn5cc(CO[C@@H]6O[C@H](CO)[C@H](O)[C@H](O)[C@H]6O)nn5)nn4)nn3)nn2)[C@H](O)[C@@H](O)[C@H]1O [Compound 13] | ~23% |
| COC(=O)c1cc(OCc2cn(CCn3cc(CO[C@@H]4O[C@H](CO)[C@H](O)[C@H](O)[C@H]4O)nn3)nn2)c(OCc2cn(CCn3cc(CO[C@@H]4O[C@H](CO)[C@H](O)[C@H](O)[C@H]4O)nn3)nn2)c(OCc2cn(CCn3cc(CO[C@@H]4O[C@H](CO)[C@H](O)[C@H](O)[C@H]4O)nn3)nn2)c1 [Compound 10] | approximately 22% |
